Laboratory results taken from patent publication US20030109675A1 (priority 2001, published 2003).
Values joined by “and” are separate entries in the source; they are usually repeats but may differ in a detail not shown here. Identical values can stand only once.

Tests used:
DegP protease = DegP protease (Escherichia coli, UniProt P0C0V0); details: for effect of divalent cation on DegP cleavage of PapA-6H4A-rcm: 5 mM
DegP [1] = target: T1, DegP (Escherichia coli, UniProt P0C0V0); details: cited from earlier work
DegP [2] = target: T1, DegP; details: for cleavage of fluorescence-quench peptide by DegP: 8 μM (SPCJ-12) or 10 μM peptide, 25 mM HEPES, 5 mM CaCl2, 45° C.
DegP [3] = target: T1, DegP; details: scaled-up (5 ml) cleavage reaction, MALDI-TOF MS of products
DegP [4] = target: T1, DegP; details: 7-mer and 12-mer Abz-tagged cellulose-bound peptides, 0.28 mg/ml DegP, 5 mM MgCl2, up to 28 hours
[5] = target: SPCJ-14 - Abz-[…]-DAP(Dnp)-NH2

[Ca+2].[Cl-].[Cl-] [CaCl2, reference compound]
effect of divalent cation on DegP cleavage of PapA-6H4A-rcm (DegP protease): stimulated DegP cleavage

[Cl-].[Cl-].[Mg+2] [MgCl2, reference compound]
input PapA-6H4A-rcm cleaved by DegP in presence of divalent cation (DegP protease; 5 mM cation, 20 μg DegP, 20 μg substrate, 4 hours at 45° C.): ~50%

[Cl][Mn][Cl] [MnCl2, reference compound]
effect of divalent cation on DegP cleavage of PapA-6H4A-rcm (DegP protease): stimulated DegP cleavage

O=S(=O)(F)Cc1ccccc1 [phenylmethylsulfonylfluoride]
inhibition of DegP activity (DegP [1]): not inhibited

Abz-HYTASSK-DAP(Dnp)-NH2 [SPCJ-14]
cleavage of fluorescence-quench peptide by DegP (DegP [2]; 5 μg DegP): lack of cleavage | inhibition of DegP cleavage of SPCJ-13 (DegP [2]; 10-fold molar excess (100 μM vs 10 μM SPCJ-13), 30 minutes pre-incubation with 5 μg DegP, then 60 minutes): blocked cleavage of SPCJ-13

Abz-HYTAVVK-DAP(Dnp)-NH2 [SPCJ-13]
cleavage of fluorescence-quench peptide by DegP (DegP [2]; 5 μg DegP): cleaved SPCJ-13 in a time-dependent fashion | DegP cleavage site in substrate peptide (DegP [3]): cleavage between the paired valine residues

Abz-HYTAVVKKSSAV-DAP(Dnp)-NH2 [SPCJ-12]
cleavage of fluorescence-quench peptide by DegP (DegP [2]; 5 μg DegP): cleaved SPCJ-12 in a time-dependent fashion | DegP cleavage site in substrate peptide (DegP [3]): cleaved between the paired valine residues

DGENVLH
cleavage of PapA library peptide by DegP in solid-phase scan (DegP [4]): cleaved by DegP

ELVNCDI
cleavage of PapA library peptide by DegP in solid-phase scan (DegP [4]): cleaved by DegP

FTGPIVNGHSDE
cleavage of PapA library peptide by DegP in solid-phase scan (DegP [4]): cleaved by DegP

HYTAVVK
cleavage of PapA library peptide by DegP in solid-phase scan (DegP [4]): cleaved by DegP

HYTAVVKKSSAV
cleavage of PapA library peptide by DegP in solid-phase scan (DegP [4]): cleaved by DegP

KLAFTGPIVNGH
cleavage of PapA library peptide by DegP in solid-phase scan (DegP [4]): cleaved by DegP

KSMCMKLSFS [SPCJ-1]
PapA-6H4A-rcm cleaved by DegP in presence of activating peptide, 60 minutes (DegP protease; 200 μM peptide, 5 μg DegP, 40 μg substrate, 5 mM MgCl2, 45° C., 60 minutes): 50% and > 50% | PapA-6H4A-rcm cleaved by DegP in presence of activating peptide, four hours (DegP protease; 200 μM peptide, 5 μg DegP, 40 μg substrate, 5 mM MgCl2, 45° C., four hours): ~90% | effect of peptide on DegP cleavage of SPCJ-13 (DegP [2]; 200 μM peptide added at onset of incubation, 5 μg DegP): enhanced cleavage of SPCJ-13

LDIELVNCDITA
cleavage of PapA library peptide by DegP in solid-phase scan (DegP [4]): cleaved by DegP

NGHSDEL
cleavage of PapA library peptide by DegP in solid-phase scan (DegP [4]): cleaved by DegP

NVLHYTA
cleavage of PapA library peptide by DegP in solid-phase scan (DegP [4]): cleaved by DegP

TLKDGENVLHYT
cleavage of PapA library peptide by DegP in solid-phase scan (DegP [4]): cleaved by DegP

B1: DegP protease (protein)
chain: AETSSATTAQQMPSLAPMLEKVMPSVVSINVEGSTTVNTPRMPRNFQQFFGDDSPFCQEGSPFQSSPFCQGGQGGNGGGQQQKFMALGSGVIIDADKGYVVTNNHVVDNATVIKVQLSDGRKFDAKMVGKDPRSDIALIQIQNPKNLTAIKMADSDALRVGDYTVAIGNPFGLGETVTSGIVSALGRSGLNAENYENFIQTDAAINRGNSGGALVNLNGELIGINTAILAPDGGNIGIGFAIPSNMVKNLTSQMVEYGQVKRGELGIMGTELNSELAKAMKVDAQRGAFVSQVLPNSSAAKAGIKAGDVITSLNGKPISSFAALRAQVGTMPVGSKLTLGLLRDGKQVNVNLELQQSSQNQVDSSSIFNGIEGAEMSNKGKDQGVVVNNVKTGTPAAQIGLKKGDVIIGANQQAVKNIAELRKVLDSKPSVLALNIQRGDSTIYLLMQ
cleavage in the fluorescent-quench peptide assay [5]: SPCJ-14 was not cleaved
